Results on 1 compound are retold here after ChEMBL document CHEMBL6083219, “Rationally designed febuxostat-based hydroxamic acid and its pH-Responsive nanoformulation elicits anti-tumor activity” (Eur J Med Chem, 2024).

Assay [1] concerns Rattus norvegicus. The assay can be described thus: Anti-hyperuricemic activity against potassium oxonate-induced hyperuricemia Wistar rat model assessed as improvement in renal condition by measuring normal glomeruli appearance at 10 mg/kg measured after 14 days by H and E staining based assay. The following applies: time 14.0 day. In kind it is functional, organism-based.
The test system of assay [2] is Rattus norvegicus. The assay can be described thus: Anti-hyperuricemic activity against potassium oxonate-induced hyperuricemia Wistar rat model assessed as increase in RBC at 5 mg/kg measured after 14 days. In kind it is functional, organism-based. The following applies: time 14.0 day.
The subject of assay [3] is Rattus norvegicus. Description: Anti-hyperuricemic activity against potassium oxonate-induced hyperuricemia Wistar rat model assessed as decrease in serum creatinine level at 5 to 10 mg/kg measured after 14 days. The settings on record: dose 5-10 mg/kg, time 14.0 day. Format: functional, organism-based.
The test system of assay [4] is Rattus norvegicus. Description: Anti-hyperuricemic activity against potassium oxonate-induced hyperuricemia Wistar rat model assessed as decrease in number of basophils at 5 mg/kg measured after 14 days. In kind it is functional, organism-based. The following applies: time 14.0 day.
Assay [5] concerns MDA-MB-231. The assay can be described thus: Upregulation of acetylated tubulin level in human MDA-MB-231 cells by Western blotting analysis. Format: functional, cell-based. The following applies: dose 0.5-2 µM.
For assay [6], the system named is HL-60. In kind it is functional, cell-based. The settings on record: Homo sapiens, HL-60, 48 h.
The subject of assay [7] is Rattus norvegicus. Description: Anti-hyperuricemic activity against potassium oxonate-induced hyperuricemia Wistar rat model assessed as improvement in renal condition by measuring decrease in tubular cell necrosis at 10 mg/kg measured after 14 days by H and E staining based assay. In kind it is functional, organism-based. The following applies: time 14.0 day.
Assay [8] deals with HH. The assay can be described thus: Cytotoxicity against human HH cells incubated for 1 day by MTT assay. The following applies: 24 h. Format: functional, cell-based.
In assay [9] the test system is HL-60. The assay can be described thus: Downregulation of HDAC1 expression level in human HL-60 cells at 0.5 to 2 uM by Western blotting analysis. In kind it is functional, cell-based. The settings on record: dose 0.5-2 µM.
The subject of assay [10] is HL-60. Description: Induction of apoptosis in human HL-60 cells assessed as morphological changes at 0.5 to 2 uM by DAPI staining based microscopic analysis. Format: functional, cell-based. The settings on record: dose 0.5-2 µM.
Assay [11] concerns MDA-MB-231. Description: Downregulation of HDAC3 expression level in human MDA-MB-231 cells at 0.5 to 2 uM by Western blotting analysis. The following applies: dose 0.5-2 µM. Format: functional, cell-based.
Assay [12] deals with Rattus norvegicus. The assay can be described thus: Anti-hyperuricemic activity against potassium oxonate-induced hyperuricemia Wistar rat model assessed as improvement in renal condition by measuring normal glomeruli size at 10 mg/kg measured after 14 days by H and E staining based assay. In kind it is functional, organism-based. The settings on record: time 14.0 day.
Assay [13] deals with HL-60. Description: Upregulation of acetylated histone H3 level in human HL-60 cells by Western blotting analysis. Format: functional, cell-based. The settings on record: dose 0.5-2 µM.
Assay [14] has as its system HL-60. Description: Induction of autophagy in human HL-60 cells at 0.5 to 2 uM by acridine orange staining based microscopic assay. In kind it is functional, cell-based. The settings on record: dose 0.5-2 µM.
The subject of assay [15] is MDA-MB-231. The assay can be described thus: Downregulation of HDAC6 expression level in human MDA-MB-231 cells at 0.5 to 2 uM by Western blotting analysis. In kind it is functional, cell-based. The following applies: dose 0.5-2 µM.
Assay [16] deals with HL-60. The assay can be described thus: Downregulation of HDAC2 expression level in human HL-60 cells at 0.5 to 2 uM by Western blotting analysis. Format: functional, cell-based. The settings on record: dose 0.5-2 µM.

SMILES strings stand for the structures. pIC50: −log10 of the molar value. Activity calls are given as the source filed them. No cut-off for these calls is given here.

As to `Cc1nc(-c2ccc(OCC(C)C)c(C#N)c2)sc1C(=O)NCCCCCCC(=O)NO`, the outcome in assay [1], in [2], in [3], in assay [4], in assay [7] and in assay [10] was Active. The outcome in assay [11], in [12], in assay [14] and in assay [15] was Active. Moreover, the Activity result in assay [5] is “Dose-dependent-effect”; in assay [9] it was “Active; Activity More Potent Than Saha”; in [13], “Dose-dependent-effect”; in assay [16], “Active; Activity More Potent Than Saha”. The pIC50 in assay [6] was 6.15; in assay [8] it was 5.96.
